Source: patent publication US8450319B2, “Pyrrolopyridazinone compound” (Ube Industries, Ltd., priority 2006, dated 2013)
Where a name gives a salt, the structure may show the parent alone.

Assays:
[1] = target: PDE4; test: Measurement of PDE4 enzyme inhibiting action; type: biochemical, human; settings: PDE4 enzyme solution from polymorphonuclear leukocytes of healthy volunteer; 0.2 μM [3H]cAMP, 30° C., 30 minutes; read-out: PDE4 inhibition IC50 value
Procedure: Preparation of a PDE4 enzyme solution was carried out according to the method of Cooper et al. (Br. J. Pharmacol., 126, 1863 (1999)) by modifying a part thereof. Heparin-treated peripheral blood from healthy volunteer was stratified by a blood cell separating solution (Polymorphprep™, available from AXIS-SHIELD PoC AS CO.), and centrifugation was carried out at 20° C. with 1900 rpm for 27 minutes to obtain polymorphonuclear leukocytes. The polymorphonuclear leukocytes were washed with a Hanks' balanced salt solution, then, a mixed solution comprising 70% of 10 mM 3-morpholinopropane sulfonic acid buffer solution (pH 7.4) containing 1 mM EGTA, 1 mM magnesium acetate and 5 mM dithiothreitol and 30% of ethylene glycol was added thereto to dissolve the same under ice-cooling, and the obtained cell dissolved solution was used as a PDE4 enzyme solution.
Measurement of PDE4 activity was carried out according to the method of Owens, et al. (Biochem. J., 326, 53 (1997)) by modifying a part thereof. The PDE4 enzyme solution was incubated with a compound to be tested dissolved in dimethylsulfoxide in 80 mM Tris-HCl buffer solution (pH 7.4) containing 0.2 μM [^3H] cAMP, 0.1 mM cGMP, 20 mM MgCl2 and 12 mM 2-mercaptoethanol at 30° C. for 30 minutes. Trifluoroacetic acid (final concentration: 1%) was added to the mixture to stop the reaction, and the reaction mixture was added to neutral alumina column (BOND ELUT™, available from VARIAN INC.). After the column was washed with 100 mM Tris-HCl buffer solution (pH 8.0), [^3H] 5′-AMP was eluted with 2N sodium hydroxide solution, and radioactivity of the eluent was measured by a liquid scintillation analyzer.
A concentration of the compound to be tested which inhibits 50% of PDE4 activity was calculated from the relation between the concentration of the compound to be tested which had been added and PDE4 activity as an IC50 value.

| melting point | IC50 [1] [nM] | Structure (SMILES) |
| --- | --- | --- |
| 192 to 194 °C | 1.7 | CCCCc1c(-c2ccc(OC(F)F)c(OC3CC3)c2)[nH]c2cn[nH]c(=O)c12 [Example 8, 3-Butyl-2-(3-cyclopropoxy-4-difluoromethoxyphenyl)-1,5-dihydropyrrolo[2,3-d]pyridazin-4-one] |
|  | 6.6 | CCc1c(-c2ccc(OC(F)F)c(OCC3CC3)c2)[nH]c2cn[nH]c(=O)c12 [Example 37, 2-(3-Cyclopropylmethoxy-4-difluoromethoxyphenyl)-3-ethyl-1,5-dihydropyrrolo[2,3-d]pyridazin-4-one HCl adduct] |
| 202 to 203 °C | 1.5 | C=CC(O)c1c(-c2ccc(OC(F)F)c(OC3CC3)c2)[nH]c2cn[nH]c(=O)c12 (stereo not shown) [Example 75, 2-(3-Cyclopropoxy-4-difluoromethoxyphenyl)-3-(1-hydroxy-2-propenyl)-1,5-dihydropyrrolo[2,3-d]pyridazin-4-one] |
| 267 to 270 °C (dec.) | 5.2 | O=c1[nH]ncc2[nH]c(-c3ccc(OC(F)F)c(OC4CC4)c3)c(Br)c12 [Example 3, 3-Bromo-2-(3-cyclopropoxy-4-difluoromethoxyphenyl)-1,5-dihydropyrrolo[2,3-d]pyridazin-4-one] |
| 248 to 249 °C | 4.7 | O=c1[nH]ncc2[nH]c(-c3ccc(OC(F)F)c(OC4CC4)c3)c(C3CC3)c12 [Example 14, 2-(3-Cyclopropoxy-4-difluoromethoxyphenyl)-3-cyclopropyl-1,5-dihydropyrrolo[2,3-d]pyridazin-4-one] |
| 186 to 188 °C | 0.38 | CCCCCCc1c(-c2ccc(OC(F)F)c(OC3CC3)c2)[nH]c2cn[nH]c(=O)c12 [Example 69, 2-(3-Cyclopropoxy-4-difluoromethoxyphenyl)-3-hexyl-1,5-dihydropyrrolo[2,3-d]pyridazin-4-one] |
| > 300 °C | 13 | C#Cc1c(-c2ccc(OC(F)F)c(OC3CC3)c2)[nH]c2cn[nH]c(=O)c12 [Example 16, 2-(3-Cyclopropoxy-4-difluoromethoxyphenyl)-3-ethynyl-1,5-dihydropyrrolo[2,3-d]pyridazin-4-one] |
| 139 to 143 °C | 0.23 | CC(C)C#CCc1c(-c2ccc(OC(F)F)c(OC3CC3)c2)[nH]c2cn[nH]c(=O)c12 [Example 73, 2-(3-cyclopropoxy-4-difluoromethoxyphenyl)-3-(4-methyl-2-pentynyl)-1,5-dihydropyrrolo[2,3-d]pyridazin-4-one] |
| 201 to 203 °C | 1.4 | CCOCCc1c(-c2ccc(OC(F)F)c(OC3CC3)c2)[nH]c2cn[nH]c(=O)c12 [Example 67, 2-(3-Cyclopropoxy-4-difluoromethoxyphenyl)-3-(2-ethoxyethyl)-1,5-dihydropyrrolo[2,3-d]pyridazin-4-one] |
| 196 to 197 °C | 3 | CC(C)OCc1c(-c2ccc(OC(F)F)c(OC3CC3)c2)[nH]c2cn[nH]c(=O)c12 [Example 60, 2-(3-Cyclopropoxy-4-difluoromethoxyphenyl)-3-isopropoxymethyl-1,5-dihydropyrrolo[2,3-d]pyridazin-4-one] |
| 220 to 221 °C | 0.57 | COc1ccc(Cc2c(-c3ccc(OC(F)F)c(OC4CC4)c3)[nH]c3cn[nH]c(=O)c23)cn1 [Example 29, 2-(3-Cyclopropoxy-4-difluoromethoxyphenyl)-3-(6-methoxy-3-pyridylmethyl)-1,5-dihydropyrrolo[2,3-d]pyridazin-4-one] |
| 239 to 241 °C | 1.8 | CC(C)Cc1c(-c2ccc(OC(F)F)c(OC3CC3)c2)[nH]c2cn[nH]c(=O)c12 [Example 9, 2-(3-Cyclopropoxy-4-difluoromethoxyphenyl)-3-isobutyl-1,5-dihydropyrrolo[2,3-d]pyridazin-4-one] |

The remaining lines, values behind:

| Structure (SMILES) | melting point | IC50 [1] [nM] |
| --- | --- | --- |
| O=c1[nH]ncc2[nH]c(-c3ccc(OC(F)F)c(OC4CC4)c3)c(COC3CCC3)c12 [Example 13, 3-Cyclobutoxymethyl-2-(3-cyclopropoxy-4-difluoromethoxyphenyl)-1,5-dihydropyrrolo[2,3-d]pyridazin-4-one] | 95 to 100 °C | 0.65 |
| O=c1[nH]ncc2[nH]c(-c3ccc(OC(F)F)c(OC4CCC4)c3)c(Br)c12 [Example 33, 3-Bromo-2-(3-cyclobutoxy-4-difluoromethoxyphenyl)-1,5-dihydropyrrolo[2,3-d]pyridazin-4-one] | 234 to 238 °C | 1.8 |
| O=c1[nH]ncc2[nH]c(-c3ccc(OC(F)F)c(OC4CCC4)c3)cc12 [Example 31, 2-(3-Cyclobutoxy-4-difluoromethoxyphenyl)-1,5-dihydropyrrolo[2,3-d]pyridazin-4-one] | 289 to 291 °C | 9.1 |
| O=c1[nH]ncc2[nH]c(-c3ccc(OC(F)F)c(OCC4CC4)c3)c(Cl)c12 [Example 36, 3-Chloro-2-(3-cyclopropylmethoxy-4-difluoromethoxyphenyl)-1,5-dihydropyrrolo[2,3-d]pyridazin-4-one] | 258 to 260 °C | 7.9 |
| O=c1[nH]ncc2[nH]c(-c3ccc(OC(F)F)c4c3C=CC(C3CC3)O4)cc12 (stereo not shown) [Example 58, 2-(2-Cyclopropyl-8-difluoromethoxy-2H-chromen-5-yl)-1,5-dihydropyrrolo[2,3-d]pyridazin-4-one] | 232 to 242 °C | 36 |
| O=c1[nH]ncc2[nH]c(-c3ccc(OC(F)F)c(OC4CCC4)c3)c(-c3ccccc3)c12 [Example 34, 2-(3-Cyclobutoxy-4-difluoromethoxyphenyl)-3-phenyl-1,5-dihydropyrrolo[2,3-d]pyridazin-4-one] | 280 to 284 °C | 8.7 |
| O=c1[nH]ncc2[nH]c(-c3ccc(OC(F)F)c(OC4CC4)c3)c(Cc3ccccc3)c12 [Example 19, 3-Benzyl-2-(3-cyclopropoxy-4-difluoromethoxyphenyl)-1,5-dihydropyrrolo[2,3-d]pyridazin-4-one] | 215 to 217 °C | 0.18 |
| CC(C)Oc1cc(-c2[nH]c3cn[nH]c(=O)c3c2Br)ccc1OC(F)F [Example 41, 3-Bromo-2-(4-difluoromethoxy-3-isopropoxyphenyl)-1,5-dihydropyrrolo[2,3-d]pyridazin-4-one] |  | 9.9 |
| O=c1[nH]ncc2[nH]c(-c3ccc(OC(F)F)c(OC4CC4)c3)c(C(O)c3ccccc3)c12 (stereo not shown) [Example 20, 2-(3-Cyclopropoxy-4-difluoromethoxyphenyl)-3-hydroxyphenylmethyl-1,5-dihydropyrrolo[2,3-d]pyridazin-4-one] |  | 0.23 |
| O=c1[nH]ncc2[nH]c(-c3ccc(OC(F)F)c(OCC4CC4)c3)c(-c3ccccc3)c12 [Example 38, 2-(3-Cyclopropylmethoxy-4-difluoromethoxyphenyl)-3-phenyl-1,5-dihydropyrrolo[2,3-d]pyridazin-4-one] | 249 to 251 °C | 7.1 |
| CCCCc1c(-c2ccc(OC)c(OC3CC3)c2)[nH]c2cn[nH]c(=O)c12 [Example 44, 3-Butyl-2-(3-cyclopropoxy-4-methoxyphenyl)-1,5-dihydropyrrolo[2,3-d]pyridazin-4-one] | 198 to 200 °C | 2.6 |
| O=c1[nH]ncc2[nH]c(-c3ccc(OC(F)F)c4c3C=CC3(CCCC3)O4)c(Cl)c12 [Example 57, 3-Chloro-2-(8-difluoromethoxy-2H-chromen-2-spiro-1′-cyclopentan-5-yl)-1,5-dihydropyrrolo[2,3-d]pyridazin-4-one] | > 300 °C | 11 |
| COc1ccc(-c2cc3c(=O)[nH]ncc3[nH]2)c2c1OC1(CCCC1)C2 [Example 50, 2-(2,3-Dihydro-7-methoxybenzofuran-2-spiro-1′-cyclopentan-4-yl)-1,5-dihydropyrrolo[2,3-d]pyridazin-4-one] | 265 °C (dec.) | 16 |
| CC1(C)C=Cc2c(-c3[nH]c4cn[nH]c(=O)c4c3Cl)ccc(OC(F)F)c2O1 [Example 52, 3-Chloro-2-(8-difluoromethoxy-2,2-dimethyl-2H-chromen-5-yl)-1,5-dihydropyrrolo[2,3-d]pyridazin-4-one] | 226 to 234 °C | 8 |
| O=c1[nH]ncc2[nH]c(-c3ccc(OC(F)F)c4c3CC3(CCCC3)O4)cc12 [Example 49, 2-(7-Difluoromethoxy-2,3-dihydrobenzofuran-2-spiro-1′-cyclopentan-4-yl)-1,5-dihydropyrrolo[2,3-d]pyridazin-4-one] | 290 to 295 °C | 3.5 |
| Cc1c(-c2ccc(OC(F)F)c3c2C=CC(C)(C)O3)[nH]c2cn[nH]c(=O)c12 [Example 53, 2-(8-Difluoromethoxy-2,2-dimethyl-2H-chromen-5-yl)-3-methyl-1,5-dihydropyrrolo[2,3-d]pyridazin-4-one HCl adduct] |  | 17 |
